# EP0776155B1, “DELIVERY OF EXOGENOUS CHEMICAL SUBSTANCES TO PLANT TISSUES” (MONSANTO COMPANY, priority 1994, dated 1996)
# What was measured:
# Type in all cases: in vivo
# [1] = test system: velvetleaf (Abutilon theophrasti, ABUTH); experiment: Example 11: percent control, time between abrasion and glyphosate application varied (hours); settings: glyphosate rate (kg a.e./ha)
# Protocol: (§1) In these Examples illustrative of the invention, velvetleaf (Abutilon theophrasti, ABUTH) seeds were planted in 4-inch (10.1 cm) square pots containing 100% silt loam soil to which 35 grams/cu ft (1.25 kg/m^3) IBDU fertilizer was added, and covered with a mix of 50% Rediearth plus 50% silt loam. The pots were sub-irrigated and the seedlings thinned after emergence to 2 plants per pot.
# (§2) Abrasion was applied using propelled 200-mesh garnet exactly as described for Examples 1-9. The herbicide used in these Examples was glyphosate as its isopropylamine salt, applied as diluted MON 2139, exactly as described for Examples 1-9.
# (§3) The time period between abrasion and herbicide application was varied as follows. In Example 11, all abrasion treatments were applied within a short period of time, and herbicide applications were made 2, 4 and 24 hours after abrasion. A set of abraded plants received no herbicide at any time. In addition, herbicide applications were made to unabraded plants at two times: (i) at the time of abrasion, and (ii) 24 hours after the time of abrasion. In Example 12, all herbicide applications were made within a short period of time, and abrasion was applied 5, 2 and 1 days before herbicide application. In addition, herbicide application was made to unabraded plants.
# (§4) Three replications were performed of every treatment. After treatment, all plants were placed in the greenhouse for the remainder of the experiment, and sub-irrigated. The first replicate was placed in one block in order of the treatment list for ease of viewing and the remaining replicates were randomly placed in two separate blocks.
# (§5) After an interval of 12-14 days after herbicide application, a visual evaluation was performed to estimate herbicidal efficacy as percent control of treated plants compared to untreated check plants.
# [2] = test system: velvetleaf (Abutilon theophrasti, ABUTH); experiment: Example 12: percent control, abrasion 5, 2, 1 days before glyphosate application; settings: glyphosate rate (kg a.e./ha)
# Protocol: as §1, §2, §3, §4, §5
# [3] = test system: velvetleaf (Abutilon theophrasti, ABUTH); experiment: Example 49: percent control, dry ice (solid carbon dioxide) injury then glyphosate spray
# Protocol: In this Example illustrative of the invention, velvetleaf (Abutilon theophrasti, ABUTH) seeds were planted in 4-inch (10.1-cm) square pots filled with 100% silt loam to which 35 g/cu ft (1.25 kg/m^3) IBDU fertilzer were added, and the seeds were covered with 50% Rediearth plus 50% silt loam without fertilizer. […] The same settings were maintained before and after treatment.
# Physical injury in this Example was inflicted on the above-ground portions of the plants, two weeks after planting, by means of 15-30 particles of dry ice (carbon dioxide in its solid phase) propelled on to each plant using a 1 oz (28.3 ml) French square bottle having two 3 mm holes in the lid, with vigorous shaking of the bottle 8-12 inches (20-30 cm) above the plant canopy.
# After dry ice treatment, plants were sprayed with glyphosate as its isopropylamine salt, in the form of the aqueous concentrate formulation MON 2139 of Monsanto Company. Plants with and without the dry ice treatment were sprayed at the same time using a track sprayer calibrated to deliver 20 gallons/acre (187 liters/ha) water with an 8002E nozzle having a 50-mesh screen, 16 inches (41 cm) above the plant canopy. Each treatment was replicated three times. Similar glyphosate treatments were applied to plants which had not received dry ice. Plants were returned to the greenhouse after spraying. […]
# [4] = test system: silvergrass (Vulpia sp., VLPSS); experiment: Example 51: field experiment, percent control, bruising or blasting then glyphosate spray; settings: 14 days after glyphosate application
# Protocol: In this Example illustrative of the invention, a field experiment was conducted in the Australian Capital Territory on 5-10 cm high vegetation consisting primarily of white flatweed (Hypochoeris microcephala, HRYMI) at the rosette stage of growth and silvergrass (Vulpia sp., VLPSS) at the 1-3 tiller stage. Plots were established, 2 m wide and 10 m long, with 3 replications of each treatment.
# Plots received either no physical injury, or one of two injury treatments, a prior art method described herein as "bruising" and a method of the present invention described herein as "blasting". Bruising involved driving a 2 metric ton four-wheel drive vehicle fitted with rubber tires, twice over the plot in opposite directions. For blasting, a hand-held sandblaster was used having a container of capacity 1000 cm^3 slung under the gun body. The sandblaster was made of die-cast aluminum alloy and equipped with a 6 mm nozzle. The operating pressure was 95 lb/sq inch (655 kPa). The abrasive used was a commercial product consisting of fine glass particles.
# Within an hour after bruising or blasting, plots received an application of glyphosate as its isopropylamine salt in the form of the aqueous concentrate formulation sold in Australia as Roundup® herbicide, diluted appropriately in water. Application was made using a hand-held boom sprayer fitted with 11001 nozzles, operating at 250 kPa pressure and delivering 90 liters/ha spray volume.
# After an interval of 14 days, a visual evaluation was performed to estimate herbicidal efficacy as percent control of plants in treated plots compared to untreated check plots.
structure (smiles),measurement,setting,value
"O=C(O)CNCP(=O)(O)O [glyphosate, N-phosphonomethylglycine]",percent control of ABUTH 14 days after glyphosate application,"[1]; abraded before 0 h, glyphosate 0.056 kg a.e./ha",70%
same,percent control of ABUTH 14 days after glyphosate application,"[1]; abraded before 0 h, glyphosate 0.11 kg a.e./ha",78%
same,percent control of ABUTH 14 days after glyphosate application,"[1]; abraded before 2 h, glyphosate 0.056 kg a.e./ha",73%
same,percent control of ABUTH 14 days after glyphosate application,"[1]; abraded before 2 h, glyphosate 0.11 kg a.e./ha",85%
same,percent control of ABUTH 14 days after glyphosate application,"[1]; abraded before 4 h, glyphosate 0.056 kg a.e./ha",79%
same,percent control of ABUTH 14 days after glyphosate application,"[1]; abraded before 4 h, glyphosate 0.11 kg a.e./ha",94%
same,percent control of ABUTH 14 days after glyphosate application,"[1]; abraded before 24 h, glyphosate 0.056 kg a.e./ha",45%
same,percent control of ABUTH 14 days after glyphosate application,"[1]; abraded before 24 h, glyphosate 0.11 kg a.e./ha",76%
same,percent control of ABUTH 12 days after glyphosate application,"[2]; abraded before 0 days, glyphosate 0.056 kg a.e./ha",79%
same,percent control of ABUTH 12 days after glyphosate application,"[2]; abraded before 0 days, glyphosate 0.11 kg a.e./ha",95%
same,percent control of ABUTH 12 days after glyphosate application,"[2]; abraded before 0 days, glyphosate 0.22 kg a.e./ha",100%
same,percent control of ABUTH 12 days after glyphosate application,"[2]; abraded before 1 day, glyphosate 0.056 kg a.e./ha",77%
same,percent control of ABUTH 12 days after glyphosate application,"[2]; abraded before 1 day, glyphosate 0.11 kg a.e./ha",92%
same,percent control of ABUTH 12 days after glyphosate application,"[2]; abraded before 1 day, glyphosate 0.22 kg a.e./ha",100%
same,percent control of ABUTH 12 days after glyphosate application,"[2]; abraded before 2 days, glyphosate 0.056 kg a.e./ha",76%
same,percent control of ABUTH 12 days after glyphosate application,"[2]; abraded before 2 days, glyphosate 0.11 kg a.e./ha",93%
same,percent control of ABUTH 12 days after glyphosate application,"[2]; abraded before 2 days, glyphosate 0.22 kg a.e./ha",100%
same,percent control of ABUTH 12 days after glyphosate application,"[2]; abraded before 5 days, glyphosate 0.056 kg a.e./ha",52%
same,percent control of ABUTH 12 days after glyphosate application,"[2]; abraded before 5 days, glyphosate 0.11 kg a.e./ha",73%
same,percent control of ABUTH 12 days after glyphosate application,"[2]; abraded before 5 days, glyphosate 0.22 kg a.e./ha",97%
same,percent control of ABUTH 12 days after glyphosate application,"[2]; abraded before 5 days, glyphosate 0.45 kg a.e./ha",100%
same,percent control of ABUTH,"[3]; glyphosate rate 0.014 kg a.i./ha, not treated with dry ice, 5 DAT",0%
same,percent control of ABUTH,"[3]; glyphosate rate 0.014 kg a.i./ha, not treated with dry ice, 11 DAT",0%
same,percent control of ABUTH,"[3]; glyphosate rate 0.014 kg a.i./ha, treated with dry ice, 5 DAT",0%
same,percent control of ABUTH,"[3]; glyphosate rate 0.014 kg a.i./ha, treated with dry ice, 11 DAT",0%
same,percent control of ABUTH,"[3]; glyphosate rate 0.028 kg a.i./ha, not treated with dry ice, 5 DAT",0%
same,percent control of ABUTH,"[3]; glyphosate rate 0.028 kg a.i./ha, not treated with dry ice, 11 DAT",0%
same,percent control of ABUTH,"[3]; glyphosate rate 0.028 kg a.i./ha, treated with dry ice, 5 DAT",0%
same,percent control of ABUTH,"[3]; glyphosate rate 0.028 kg a.i./ha, treated with dry ice, 11 DAT",0%
same,percent control of ABUTH,"[3]; glyphosate rate 0.056 kg a.i./ha, not treated with dry ice, 5 DAT",0%
same,percent control of ABUTH,"[3]; glyphosate rate 0.056 kg a.i./ha, not treated with dry ice, 11 DAT",0%
same,percent control of ABUTH,"[3]; glyphosate rate 0.056 kg a.i./ha, treated with dry ice, 5 DAT",0%
same,percent control of ABUTH,"[3]; glyphosate rate 0.056 kg a.i./ha, treated with dry ice, 11 DAT",2%
same,percent control of ABUTH,"[3]; glyphosate rate 0.11 kg a.i./ha, not treated with dry ice, 5 DAT",8%
same,percent control of ABUTH,"[3]; glyphosate rate 0.11 kg a.i./ha, not treated with dry ice, 11 DAT",0%
same,percent control of ABUTH,"[3]; glyphosate rate 0.11 kg a.i./ha, treated with dry ice, 5 DAT",22%
same,percent control of ABUTH,"[3]; glyphosate rate 0.11 kg a.i./ha, treated with dry ice, 11 DAT",8%
same,percent control of ABUTH,"[3]; glyphosate rate 0.21 kg a.i./ha, not treated with dry ice, 5 DAT",60%
same,percent control of ABUTH,"[3]; glyphosate rate 0.21 kg a.i./ha, not treated with dry ice, 11 DAT",73%
same,percent control of ABUTH,"[3]; glyphosate rate 0.21 kg a.i./ha, treated with dry ice, 5 DAT",71%
same,percent control of ABUTH,"[3]; glyphosate rate 0.21 kg a.i./ha, treated with dry ice, 11 DAT",83%
same,percent control of ABUTH,"[3]; glyphosate rate 0.45 kg a.i./ha, not treated with dry ice, 5 DAT",80%
same,percent control of ABUTH,"[3]; glyphosate rate 0.45 kg a.i./ha, not treated with dry ice, 11 DAT",100%
same,percent control of ABUTH,"[3]; glyphosate rate 0.45 kg a.i./ha, treated with dry ice, 5 DAT",89%
same,percent control of ABUTH,"[3]; glyphosate rate 0.45 kg a.i./ha, treated with dry ice, 11 DAT",100%
same,percent control of ABUTH,"[3]; glyphosate rate 0.89 kg a.i./ha, not treated with dry ice, 5 DAT",97%
same,percent control of ABUTH,"[3]; glyphosate rate 0.89 kg a.i./ha, not treated with dry ice, 11 DAT",100%
same,percent control of ABUTH,"[3]; glyphosate rate 0.89 kg a.i./ha, treated with dry ice, 5 DAT",93%
same,percent control of ABUTH,"[3]; glyphosate rate 0.89 kg a.i./ha, treated with dry ice, 11 DAT",100%
same,percent control VLPSS,"[4]; glyphosate rate 0.18 kg a.e./ha, injury treatment blasting",77%
same,percent control VLPSS,"[4]; glyphosate rate 0.18 kg a.e./ha, injury treatment bruising",78%
same,percent control VLPSS,"[4]; glyphosate rate 0.18 kg a.e./ha, injury treatment none",65%
same,percent control VLPSS,"[4]; glyphosate rate 0.25 kg a.e./ha, injury treatment blasting",82%
same,percent control VLPSS,"[4]; glyphosate rate 0.25 kg a.e./ha, injury treatment bruising",83%
same,percent control VLPSS,"[4]; glyphosate rate 0.25 kg a.e./ha, injury treatment none",85%
same,percent control VLPSS,"[4]; glyphosate rate 0.36 kg a.e./ha, injury treatment blasting",98%
same,percent control VLPSS,"[4]; glyphosate rate 0.36 kg a.e./ha, injury treatment bruising",83%
same,percent control VLPSS,"[4]; glyphosate rate 0.36 kg a.e./ha, injury treatment none",95%
